Patent US10912776B2, “Methods of treating cancer” (Corvus Pharmaceuticals, Inc., priority 2015, dated 2021)
“And” between values parts separate entries of the source, which are not always exact repeats. Identical values can stand only once. “Also recorded” adds a separate entry of the source.

What was measured:
[1] = tested on: EL4 cells; experiment: XTT cell viability/proliferation, EL4; type: cell-based, mouse; conditions: 10 µM to 1 pM, 24 hours
Experimental: (§1) Staurosporine, a well-characterized inducer of apoptosis, was included as a positive control for cell death. Cell viability/proliferation was measured by XTT. In this assay, XTT salts are cleaved by metabolically active (viable) cells, thereby producing a colorimetric change in the culture media that can be quantified by measuring absorbance at 405 nm and 620 nm on a spectrophotometer.

[2] = tested on: EL4 cells; experiment: Syngeneic EL4 mouse lymphoma model; type: in vivo; conditions: 10, 30, 100 mg/kg daily oral gavage
Experimental: Syngeneic C57BL/6 female mice (8-10 weeks old) were injected (via subcutaneous route) with EL4 cells.

[3] = tested on: MC38 cells; experiment: XTT cell viability/proliferation, MC38; type: cell-based, mouse; conditions: 10 µM to 1 pM, 24 hours
Experimental: as §1

[4] = target: T1, A2AR (Homo sapiens, UniProt P29274); experiment: cAMP production in primary human T cells stimulated with NECA (LANCE Ultra cAMP); type: cell-based; parameters: Blood samples were derived from patients and processed using the following protocol; endogenous in cells; host or cells: whole blood B cells and T cells of treated subjects
T1 sequence (P29274 whole entry): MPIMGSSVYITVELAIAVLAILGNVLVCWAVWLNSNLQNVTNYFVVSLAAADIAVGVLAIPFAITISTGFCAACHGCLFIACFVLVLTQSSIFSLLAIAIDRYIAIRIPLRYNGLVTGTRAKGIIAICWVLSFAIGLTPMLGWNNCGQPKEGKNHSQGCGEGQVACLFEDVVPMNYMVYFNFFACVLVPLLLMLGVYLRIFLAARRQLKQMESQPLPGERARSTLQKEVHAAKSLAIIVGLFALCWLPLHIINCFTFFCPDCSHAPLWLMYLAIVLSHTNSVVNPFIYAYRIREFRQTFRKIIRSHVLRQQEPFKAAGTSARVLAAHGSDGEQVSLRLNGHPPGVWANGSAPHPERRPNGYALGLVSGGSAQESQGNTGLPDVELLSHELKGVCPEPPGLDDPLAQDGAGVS
Experimental: Adenosine signaling through A2AR leads to increases in the levels of cAMP.
T cells were isolated from human PBMC by negative selection and activated via CD3/CD28 stimulation for 48 hours to induce A2AR expression. Stimulated T cells were then “rested” for 24 hours by removal of CD3/CD28 stimulation in order to minimize background levels of cAMP.

[5] = non-oncology indications; 75 subjects; cited from earlier work
[6] = target: T1, A2AR; experiment: NECA-induced pCREB in whole blood B cells and T cells of treated subjects (flow cytometry); type: in vivo; parameters: Blood samples were derived from patients and processed using the following protocol; endogenous in cells; host or cells: whole blood B cells and T cells of treated subjects
Experimental: Control samples were treated with phorbol myristate acetate (PMA).
[…] control samples were treated with phorbol myristate acetate (PMA).
On day 14, blood was collected prior to dosing (0 hr, trough) and for a time course post-dose (1.5, 3, 5.5, 8 hr) (FIGS. 26-28). The level of signaling was determined and the percent inhibition on Day 14 compared to Day 1 pre-treatment was calculated.

[7] = tested on: MC38 colon cancer cells; experiment: Syngeneic MC38 mouse colon carcinoma model, CPI-444 dose response and rechallenge; type: in vivo
Source text: 100% protected from rechallenge. […] These mice were challenged with the new engraftment of MC38 tumor cells.
MC38 colon cancer cells were subcutaneously injected onto the backs of syngeneic C57BL/6 mice.

[8] = tested on: CT26 cells; experiment: XTT cell viability/proliferation, CT26; type: cell-based, mouse; conditions: 10 µM to 1 pM, 24 hours
Experimental: as §1

[9] = target: T1, A2AR; experiment: pERK levels in human CD4+ T cells after TCR cross-linking; conditions: NECA 1 μM
[10] = target: T1, A2AR; experiment: NECA-induced phospho-CREB in fresh PBMCs (B cell population); conditions: primarily B cell population
[11] = Phase 1/1b clinical trial in solid tumor patients (safety, efficacy, blood biomarkers); type: in vivo, human
Experimental: FIGS. 19A and 19B: T Cell activation in treated subjects. Whole blood was collected on Day 1 of Cycles 1, 2, 4 & 8 for flow analysis. The percentage of CD4 and CD8 T cells that stained PD-1+(FIG. 19A) or CD45RA− (memory/effector cells) (FIG. 19B) is shown. Each line represents a single subject across time.
Whole blood was collected on Day 1 of Cycles 1 and 2 and PBMCs were prepared. DNA was extracted from PBMCs and sequenced for TCRβ repertoire by Adaptive Biotechnologies. […] Morisita Index measures T cell repertoir similarity comparing pre- and post-dose PBMCs. A Morisita Index of 1 is equal to identity, indicating no longitudinal change. Morisita Index distribution in single agent and combination cohorts (FIG. 20B). Graph showing Morisita Index by cohort (FIG. 20C). […] Changes were driven predominantly by TCR clone expansion (clonality).
After a dose selection stage, pts are treated in 10 disease specific cohorts (5 single agent and 5 combination). Cohorts may be expanded based on response criteria: complete response, partial response or stable disease (SD). Biomarkers are evaluated including immune cells by flow cytometry in peripheral blood and pre/post treatment tumor biopsies as well as adenosine pathway modulation by immunohistochemistry and gene expression.
In step 1 of the trial, patients were dosed with either 100 mg BID for 14 days out of a 28 day cycle, 100 mg BID for 28 days, 200 mg QD for 14 days or 50 mg or 100 mg BID for 14 days in combination with […]® (840 mg Q2W). Pharmacodynamic analysis was conducted on peripheral blood cells to inform dose selection. Step 1 of Phase1/1b was fully enrolled (n=48) and dose was selected (100 mg BID) based on pharmacodynamic analysis of A2AR pathway.

[12] = target: T1, A2AR; experiment: IL-2 and IFNγ secretion from activated primary human PBMCs (AlphaLISA); type: cell-based; parameters: Blood samples were derived from patients and processed using the following protocol; endogenous in cells; host or cells: whole blood B cells and T cells of treated subjects; conditions: CPI-444 1 μM; NECA or CGS21680 1 μM; anti-CD3/anti-CD28 48 hours
Experimental: Purified anti-CD3 and anti-CD28 monoclonal antibodies (1 ug/ml) were then added to activate T cells for 48 hours.
Purified anti-CD3 and anti-CD28 monoclonal antibodies (1 ug/ml) were then added to activate T cells for 48 hours. In this study, AlphaLISA assays (PerkinElmer) analyzed on an EnVision MultiLabel Reader were used to measure cytokine release according to the manufacturer's instructions.

[13] = tested on: CT26 mouse colon cancer cells; conditions: CPI-444 100 mg/kg oral; anti-PD-1 100 ug/mouse i.p.
Source text: CT26 mouse colon cancer cells were engrafted onto the back of syngeneic male Balb/c mice. […] Treatment continued for 12 days.

[14] = tested on: MC38 mouse colon cancer cells; experiment: Syngeneic MC38 mouse colon cancer model, CPI-444 in combination with anti-PD-L1; type: in vivo
Source text: Combo eliminates tumors in 50% of mice. […] Treatment continued for 12 days.
FIGS. 16A and 16B: MC38 Model: Established tumors eliminated in 8/9 mice.
Treatment continued for more than 9 days (FIG. 23C). […] T cell depletion was verified by flow analysis. FIGS. 23A and 23B show the tumor volume at different time points since engraftment for the dosing cohorts.
Treatment continued for 12 days. […] T cell depletion was verified by flow analysis. FIGS. 23A and 23B show tumor volume at different time points since engraftment for the dosing cohorts.
Treatment continued for more than 9 days. […] T cell depletion was verified by flow analysis. FIGS. 23A and 23B show tumor volume at different time points since engraftment for the dosing cohorts.

Cc1ccc(-c2nc(N)nc3c2nnn3Cc2cccc(COC3CCOC3)n2)o1 (stereo not drawn) [CPI-444]
Specific Absorbance (XTT cell viability/proliferation) [1]: No significant decrease in the Specific Absorbance
tumor growth in regional lymph nodes (number and size of enlarged nodes) [2]: significant dose-dependent inhibition of tumor growth within regional lymph nodes; also recorded: significant, dose-dependent decrease in the number and size of enlarged regional lymph nodes; also recorded: Inhibits EL4 Tumor Growth In Regional Lymph Nodes
Specific Absorbance (XTT cell viability/proliferation) [3]: No significant decrease in the Specific Absorbance
cAMP production upon NECA stimulation, CPI-444 dose dependence ([4]; FIG. 6): prevented cAMP production upon NECA stimulation in a dose-dependent manner; also recorded: Inhibits cAMP Production
production of cAMP upon NECA treatment ([4]; all levels of NECA tested (10^-5 to 10^-9 M), 10 minutes): completely blocked the production of cAMP
tolerability [5]: well tolerated; also recorded: well tolerated with no significant adverse events noted
inhibition of NECA-induced pCREB ([6]; 50 mg BID, Day 14): Variable inhibition; also recorded: not high enough for sustained inhibition
change in pCREB percent inhibition between trough (0 hr) and peak (3 hr) ([6]; 100 mg BID): Little fluctuation from trough to peak
patients with complete and sustained inhibition of NECA-induced pCREB ([6]; 100 mg BID single agent, Day 14): 7 of 7
inhibition of pCREB / A2AR pathway ([6]; 100 mg BID, Day 14): high pCREB inhibition at trough and near complete inhibition after taking their morning dose; also recorded: highest pCREB inhibition at trough and near complete inhibition after taking their morning dose
inhibition of NECA-induced pCREB ([6]; 200 mg QD, Day 14): Variable inhibition; also recorded: achieves high peak levels but is not maintained at trough; also recorded: partial inhibition; also recorded: attenuated
CPI-444 plasma levels with near complete inhibition of pCREB in B cells ([6]; B cells): greater than 2,000 ng/mL
CPI-444 plasma levels with near complete inhibition of pCREB in CD4+ T cells ([6]; T cells): greater than 2,000 ng/mL
CPI-444 exposures at which the A2AR pathway is completely inhibited ([6]; plasma CPI-444): greater than 2000 ng/mL
tumor growth ([7]; 1 mg/kg daily oral gavage for 28 days): did not inhibit tumor growth
tumor growth ([7]; 10 mg/kg daily oral gavage for 28 days): significantly inhibits the growth; also recorded: significant inhibition of tumor growth
tumor growth ([7]; 100 mg/kg daily oral gavage for 28 days): significantly inhibits the growth; also recorded: significant inhibition of tumor growth
mice with tumors eliminated ([7]; CPI-444 dose response study): 30%
complete tumor regression ([7]; all cohorts (1, 10, 100 mg/kg)): complete tumor regression was observed in a subset of mice within all cohorts
tumor growth after rechallenge with MC38 cells ([7]; cured mice, no additional CPI-444 treatment): fully inhibited; also recorded: fully rejected in all 9 mice
inhibition of tumor growth (dose response) ([7]; daily CPI-444 1, 10, 100 mg/kg): dose-dependent inhibition of tumor growth; also recorded: Inhibits Growth of MC38 Tumors
mice protected from rechallenge ([7]; new engraftment of MC38 cells, no additional CPI-444 treatment): 100%
reoccurrence during additional 6 weeks monitoring ([7]; nine mice with complete tumor growth inhibition): No tumor growth was observed
Specific Absorbance (XTT cell viability/proliferation) [8]: No significant decrease in the Specific Absorbance
pERK levels / ERK signaling in CD4+ T cells in the presence of NECA [9]: restored pERK levels in a dose-dependent manner; also recorded: Restores pERK
inhibition of NECA-induced CREB phosphorylation [10]: completely inhibited; also recorded: Prevents pCREB Induction in B Cells
first efficacy assessment by CT ([11]; 2 pts (1 combination and 1 single agent), unconfirmed at 2 months): both demonstrated SD
tolerability / treatment related adverse events ([11]; 7 pts treated to date): well tolerated with no Grade 3 or 4 treatment related adverse events; also recorded: well tolerated
tumor response ([11]; Nivolumab-refractory lung cancer patient, 100 mg po BID×28 days/cycle): Tumor regression
TCR repertoire changes in peripheral blood ([11]; TCRβ sequencing of PBMCs, Day 1 of Cycles 1 and 2): TCR repertoire changes were induced; also recorded: robust changes in TCR repertoire in some patients
activated (PD-1+) CD8 cell frequencies in blood ([11]; flow analysis of whole blood): Increases in activated CD8 cell frequencies
memory (CD45RA−) cell frequencies in blood ([11]; flow analysis of whole blood): increases
T cell clone expansion / clonality ([11]; single agent CPI-444): Expansion of pre-existing and new T cell clones; also recorded: increased clonality
increase in PD-1+CD8+ cells in peripheral blood compared to baseline ([11]; the two pts with SD): 1.7 fold and 2.4 fold
IFNγ secretion in presence of A2AR agonist [12]: restored IL-2 and IFNγ secretion back to levels observed in the absence of exogenous adenosine signaling
IL-2 secretion in presence of A2AR agonist [12]: restored IL-2 and IFNγ secretion back to levels observed in the absence of exogenous adenosine signaling
tumor eradication / elimination [13]: not completely eradicated
tumor eradication ([14]; CPI-444 100 mg/kg from Day 0, anti-PD-L1 200 ug/mouse): not completely eradicated
tumor growth ([14]; CPI-444 100 mg/kg oral from Day 0 for 12 days, anti-PD-L1 mAb 10F.9G2 200 ug/mouse i.p. days 7, 10, 13, 16): inhibition of tumor growth
dependence of efficacy on CD8+ T cells (T cell depletion with Anti-mCD4 / Anti-mCD8) ([14]; CPI-444 100 mg/kg, anti-PD-L1 200 ug/mouse): CD8+ T cells are required for the efficacy
mice with tumors eliminated ([14]; FIGS. 14A and 14B title): 30%
levels of immune checkpoints (GITR, OX40, LAG3) on tumor infiltrating lymphocytes and circulating T cells ([14]; mouse, in vivo): modulated
